What was measured:
Test in all cases: relative viability (nuclei count vs DMSO), 5 days (fraction); higher = more cells survive
BEN = system: BEN
Summary of the method: (§1)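 Cells from lung cancer lines were seeded into 1536-well plates and, one day later, dosed by pin tool. Treatments were either a single drug or a fixed dose of an anchor drug with five library-drug doses (not always all listed) in √10 steps. After 5 days, nuclei were stained in a one-step fixation (final 0.05% Triton X-100, 1% formaldehyde, 1 ug/ml Hoechst) and counted on 4× images, and relative viability is the treated-to-vehicle nuclei ratio, as the median of duplicate plates.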

CAL-12T = system: CAL-12T
Summary of the method: as §1

COR-L23 = system: COR-L23
Summary of the method: as §1

HCC-366 = system: HCC-366
Summary of the method: as §1

LOU-NH91 = system: LOU-NH91
Summary of the method: as §1

LU99A = system: LU99A
Summary of the method: as §1

NCI-H1355 = system: NCI-H1355
Summary of the method: as §1

NCI-H1437 = system: NCI-H1437
Summary of the method: as §1

NCI-H1650 = system: NCI-H1650
Summary of the method: as §1

NCI-H1651 = system: NCI-H1651
Summary of the method: as §1

NCI-H1734 = system: NCI-H1734
Summary of the method: as §1

NCI-H1793 = system: NCI-H1793
Summary of the method: as §1

NCI-H1975 = system: NCI-H1975
Summary of the method: as §1

NCI-H2023 = system: NCI-H2023
Summary of the method: as §1

NCI-H2085 = system: NCI-H2085
Summary of the method: as §1

NCI-H2342 = system: NCI-H2342
Summary of the method: as §1

NCI-H358 = system: NCI-H358
Summary of the method: as §1

NCI-H441 = system: NCI-H441
Summary of the method: as §1

NCI-H460 = system: NCI-H460
Summary of the method: as §1

NCI-H838 = system: NCI-H838
Summary of the method: as §1

SK-LU-1 = system: SK-LU-1
Summary of the method: as §1

`COc1cc2nccc(Oc3ccc(NC(=O)Nc4cc(C)on4)c(Cl)c3)c2cc1OC` [Tivozanib] + O=C(CCCCCCC(=O)Nc1ccccc1)NO [Vorinostat] (partner 1 µM) was tested, and the relative viability (BEN; first compound 0.005 µM) was 0.577, the relative viability (BEN; first compound 0.01581 µM) was 0.572 and the relative viability (BEN; first compound 0.05 µM) was 0.586. For the same compound, the relative viability (BEN; first compound 0.1581 µM) was 0.527, the relative viability (BEN; first compound 0.5 µM) was 0.522 and the relative viability (CAL-12T; first compound 0.005 µM) was 0.842. For the same compound, the relative viability (CAL-12T; first compound 0.01581 µM) was 0.744, the relative viability (CAL-12T; first compound 0.05 µM) was 0.891 and the relative viability (CAL-12T; first compound 0.1581 µM) was 0.539. The relative viability (CAL-12T; first compound 0.5 µM) was 0.473, the relative viability (COR-L23; first compound 0.005 µM) was 0.444 and the relative viability (COR-L23; first compound 0.01581 µM) was 0.454. It also gave a relative viability (COR-L23; first compound 0.05 µM) of 0.607, a relative viability (COR-L23; first compound 0.1581 µM) of 0.33 and a relative viability (COR-L23; first compound 0.5 µM) of 0.311. The relative viability (HCC-366; first compound 0.005 µM) was 0.333, the relative viability (HCC-366; first compound 0.01581 µM) was 0.323 and the relative viability (HCC-366; first compound 0.05 µM) was 0.312. The relative viability (HCC-366; first compound 0.1581 µM) was 0.305, the relative viability (HCC-366; first compound 0.5 µM) was 0.244 and the relative viability (LOU-NH91; first compound 0.005 µM) was 0.754. For the same compound, the relative viability (LOU-NH91; first compound 0.01581 µM) was 0.952, the relative viability (LOU-NH91; first compound 0.05 µM) was 0.908 and the relative viability (LOU-NH91; first compound 0.1581 µM) was 0.782. The relative viability (LOU-NH91; first compound 0.5 µM) was 0.761, the relative viability (LU99A; first compound 0.005 µM) was 0.43 and the relative viability (LU99A; first compound 0.01581 µM) was 0.443. It also gave a relative viability (LU99A; first compound 0.05 µM) of 0.526, a relative viability (LU99A; first compound 0.1581 µM) of 0.358 and a relative viability (LU99A; first compound 0.5 µM) of 0.402. The relative viability (NCI-H1355; first compound 0.005 µM) was 0.58, the relative viability (NCI-H1355; first compound 0.01581 µM) was 0.612 and the relative viability (NCI-H1355; first compound 0.05 µM) was 0.68. For the same compound, the relative viability (NCI-H1355; first compound 0.1581 µM) was 0.437, the relative viability (NCI-H1355; first compound 0.5 µM) was 0.588 and the relative viability (NCI-H1437; first compound 0.005 µM) was 0.769. It also gave a relative viability (NCI-H1437; first compound 0.01581 µM) of 0.876, a relative viability (NCI-H1437; first compound 0.05 µM) of 0.815 and a relative viability (NCI-H1437; first compound 0.1581 µM) of 0.746. For the same compound, the relative viability (NCI-H1437; first compound 0.5 µM) was 0.712, the relative viability (NCI-H1650; first compound 0.005 µM) was 0.638 and the relative viability (NCI-H1650; first compound 0.01581 µM) was 0.529. The relative viability (NCI-H1650; first compound 0.05 µM) was 0.712, the relative viability (NCI-H1650; first compound 0.1581 µM) was 0.606 and the relative viability (NCI-H1650; first compound 0.5 µM) was 0.545. It also gave a relative viability (NCI-H1651; first compound 0.005 µM) of 0.444, a relative viability (NCI-H1651; first compound 0.01581 µM) of 0.53 and a relative viability (NCI-H1651; first compound 0.05 µM) of 0.619. The relative viability (NCI-H1651; first compound 0.1581 µM) was 0.519, the relative viability (NCI-H1651; first compound 0.5 µM) was 0.471 and the relative viability (NCI-H1734; first compound 0.005 µM) was 0.685. It also gave a relative viability (NCI-H1734; first compound 0.01581 µM) of 0.79, a relative viability (NCI-H1734; first compound 0.05 µM) of 0.813 and a relative viability (NCI-H1734; first compound 0.1581 µM) of 0.578. The relative viability (NCI-H1734; first compound 0.5 µM) was 0.57, the relative viability (NCI-H1793; first compound 0.005 µM) was 0.606 and the relative viability (NCI-H1793; first compound 0.01581 µM) was 0.706. It also gave a relative viability (NCI-H1793; first compound 0.05 µM) of 0.778, a relative viability (NCI-H1793; first compound 0.5 µM) of 0.742 and a relative viability (NCI-H1975; first compound 0.005 µM) of 0.663. For the same compound, the relative viability (NCI-H1975; first compound 0.01581 µM) was 0.731, the relative viability (NCI-H1975; first compound 0.05 µM) was 0.712 and the relative viability (NCI-H1975; first compound 0.1581 µM) was 0.699. It also gave a relative viability (NCI-H1975; first compound 0.5 µM) of 0.666, a relative viability (NCI-H2023; first compound 0.005 µM) of 0.488 and a relative viability (NCI-H2023; first compound 0.01581 µM) of 0.694. The relative viability (NCI-H2023; first compound 0.05 µM) was 0.703, the relative viability (NCI-H2023; first compound 0.1581 µM) was 0.48 and the relative viability (NCI-H2023; first compound 0.5 µM) was 0.441. It also gave a relative viability (NCI-H2085; first compound 0.005 µM) of 0.754, a relative viability (NCI-H2085; first compound 0.01581 µM) of 0.796 and a relative viability (NCI-H2085; first compound 0.05 µM) of 0.825. For the same compound, the relative viability (NCI-H2085; first compound 0.1581 µM) was 0.709, the relative viability (NCI-H2085; first compound 0.5 µM) was 0.786 and the relative viability (NCI-H2342; first compound 0.005 µM) was 0.783. It also gave a relative viability (NCI-H2342; first compound 0.01581 µM) of 0.668, a relative viability (NCI-H2342; first compound 0.05 µM) of 0.719 and a relative viability (NCI-H2342; first compound 0.5 µM) of 0.811. The relative viability (NCI-H358; first compound 0.005 µM) was 0.652, the relative viability (NCI-H358; first compound 0.01581 µM) was 0.761 and the relative viability (NCI-H358; first compound 0.05 µM) was 0.779. The relative viability (NCI-H358; first compound 0.1581 µM) was 0.62, the relative viability (NCI-H358; first compound 0.5 µM) was 0.37 and the relative viability (NCI-H441; first compound 0.005 µM) was 0.765. For the same compound, the relative viability (NCI-H441; first compound 0.01581 µM) was 0.771, the relative viability (NCI-H441; first compound 0.05 µM) was 0.743 and the relative viability (NCI-H441; first compound 0.1581 µM) was 0.801. The relative viability (NCI-H441; first compound 0.5 µM) was 0.745, the relative viability (NCI-H460; first compound 0.005 µM) was 0.651 and the relative viability (NCI-H460; first compound 0.01581 µM) was 0.741. It also gave a relative viability (NCI-H460; first compound 0.05 µM) of 0.748, a relative viability (NCI-H460; first compound 0.1581 µM) of 0.76 and a relative viability (NCI-H460; first compound 0.5 µM) of 0.569. For the same compound, the relative viability (NCI-H838; first compound 0.005 µM) was 0.75, the relative viability (NCI-H838; first compound 0.01581 µM) was 0.792 and the relative viability (NCI-H838; first compound 0.05 µM) was 0.802. It also gave a relative viability (NCI-H838; first compound 0.1581 µM) of 0.746, a relative viability (NCI-H838; first compound 0.5 µM) of 0.696 and a relative viability (SK-LU-1; first compound 0.005 µM) of 0.796. For the same compound, the relative viability (SK-LU-1; first compound 0.01581 µM) was 0.838, the relative viability (SK-LU-1; first compound 0.05 µM) was 0.707 and the relative viability (SK-LU-1; first compound 0.1581 µM) was 0.6. It also gave a relative viability (SK-LU-1; first compound 0.5 µM) of 0.729.

From the supplement of paper PMC10307832
